The subject of assay [1] is A. baumannii - NCTC 17978. Put plainly: Time kill kinetics. Format: cell-based. As to conditions: drug at 4×MIC. The method, then: 1. Grow bacteria overnight.
2. Subculture into an autoclaved conical flask containing 10 ml of TSB to an OD of 0.01 (˜1×10^7 Cfu/ml for KP-M6).
4. Take aliquots (100 μl) at timepoints (0, 1, 2, 4, 6, 24 hours) and carry out a serial dilution in PBS (to remove drug and to dilute bacteria to countable numbers).
5. Use the serial dilution to perform a Miles Misra—i.e. Add 3×10 μl spots of each dilution onto an agar plate. Incubate overnight and count colonies on spots in the morning.
6. Control: Subculture bacteria alongside samples but with no antibiotic added. Take aliquots from this at every time point (0, 1, 2, 4, 6, 24 hours) and perform Miles Misra on these too (as detailed in points 4 and 5 above).
7. After the first experiment, if the counts seen on Miles-Misra were zero, total viable counts were determined by spreading 200 μl in a streak down the centre of a TSB agar plate, waiting for the liquid to be absorbed and then spreading over the plate and checking for growth inhibition at the sight of the original streak.
8. The compound is considered bactericidal if the inoculum was reduced >3 log10 CFU/ml and bacteriostatic if inoculum was reduced by 0-3 log10 CFU/ml.
Three measurements were taken for each compound at each time point. These measurements were averaged and the standard deviation was also calculated.

The next assay relates to K. pneumonia MGH 78578. Nature of the assay: General MIC protocol, Gram negative. Format: cell-based. As to conditions: Klebsiella pneumoniae, MGH78578. The procedure: (§1) General Minimum Inhibitory Concentration (MIC) Protocol
(§2) 1. Grow up cultures of bacterial strains to be tested overnight.
(§3) 2. Dilute down overnight cultures to concentration of 1×10^6 bacteria/ml (OD0.01) in Tryptic soy broth (TSB).
(§4) 3. Add 100 μl of TSB media to column 2-column 12 in 96 well plate (keeping column 1 clear).
(§5) 4. Make up compound to a concentration of 64 μg/ml in water (or alternatively to twice the chosen maximum concentration to be tested).
(§6) 5. Add 100 μl of antibiotic solution to the 1st and 2nd columns.
(§7) 6. Using a multichannel pipette take 100 μl from the 2nd column wells and pipette into 3rd column wells and repeat down the 96 well plate (remembering to include controls i.e. uninfected media and media with no antibiotic).
(§8) 7. To each well (except uninfected control row H) add 100 μl of bacterially infected media at a concentration of 1×10^6/ml.
(§9) 8. This dilutes down the concentration of the antibiotic by half (top dose is therefore 32 μg/ml in column 1) and also gives you a starting bacterial concentration of 5×10^5/ml.
(§10) 9. Wrap plate with parafilm to prevent evaporation.
(§11) 10. Leave at desired temperature (37° C. unless specified elsewhere) for 20 hours.
(§12) 11. Next day check plates for growth and measure optical density (i.e. absorbance) at a wavelength of 600 nm (OD600).
(§13) An example of such a plate is shown in FIG. 1 where column A represents wells that receive the top dose 100 μl; column B represents wells that receive the top dose 100 μl+100 μl TSB; and column C represents wells that receive 100 μl TSB. Row H which is marked by a box labelled D represents a blank where the cells receive no bacteria.

The test system of a further assay is P. aeruginosa PA01. Nature of the assay: General MIC protocol, Gram negative. It is filed as cell-based. The method, then: as §1, §2, §3, §4, §5, §6, §7, §8, §9, §10, §11, §12, §13
In the next assay the test system is K. pneumonia NCTC 13439. Put plainly: General MIC protocol, Gram negative. It is filed as cell-based. As to conditions: Klebsiella pneumoniae, NCTC13439. The method, then: as §1, §2, §3, §4, §5, §6, §7, §8, §9, §10, §11, §12, §13
The next assay has as its system Psueudomonas GH12. Nature of the assay: General MIC protocol, Gram negative. As to conditions: Pseudomonas. It is filed as cell-based. The procedure: as §1, §2, §3, §4, §5, §6, §7, §8, §9, §10, §11, §12, §13
The activity of the compound designated PP-A148 was tested against an extended panel of Klebsiella and Pseudomonas Gram-negative bacterial strains that have proven drug resistant difficult to treat. […] The minimum inhibitory concentration (MIC) was measured using the general MIC protocol given above.

The subject of the next assay is AYE. Nature of the assay: Effect of efflux pump inhibitors (EPIs) on MIC. It is filed as cell-based, A. bauamnnii. As to conditions: for +PABN MIC: PABN at 25 μg/ml. The procedure:
as §2, §3, §4
(§14) 4. Make up compound to a concentration of 64 μg/ml in water.
as §6
(§15) 6. Using a multichannel pipette take 100 μl from the 2nd column wells and pipette into 3rd column wells and repeat down the 96 well plate (remember to include controls i.e. uninfected media and media with no antibiotic).
(§16) 7. To each well (except uninfected control row H) add 50 μl/well of EPI at 4× final concentration in TSB.
(§17) 9. In wells used to test the effect of the EPI carbonyl cyanide 3-chlorophenylhydrazone (CCCP) the CCCP is added at 10 μg/ml final concentration.
(§18) 10. In wells used to test the effect of the EPI phenylalanine-arginine β-naphthylamide (PABN) the PABN is added at 25 μg/ml final concentration.
(§19) 11. In wells used to test the effect of the PABN+Mg, the PABN is added at 25 μg/ml final concentration, with 1 mM MgSO4 in TSB.
(§20) 12. Wrap plate with parafilm to prevent evaporation.
(§21) 13. Leave at desired temperature (37° C. unless specified elsewhere) for 20 hours.
(§22) 14. Next day check plates for growth and measure optical density (i.e. absorbance) at a wavelength of 600 nm (OD600).
(§23) Compound KMR-14-33 was tested against a range of bacterial species using the above protocol. Compound PP-A148 was also tested against a more limited range of bacterial species using the above protocol. For KMR-14-33 measurements were carried out for the compound alone, for the compound plus CCCP, for the compound plus PABN and for the compound plus PABN and plus Mg. For PP-A148 measurements were carried out for the compound alone and for the compound plus PABN.

The subject of the next assay is NCTC 17978. Put plainly: Effect of efflux pump inhibitors (EPIs) on MIC. Format: cell-based, A. bauamnnii. As to conditions: for +PABN MIC: PABN at 25 μg/ml. The procedure: as §2, §3, §4, §14, §6, §15, §16, §17, §18, §19, §20, §21, §22, §23
Where [2] appears, read: Pseudomonas aeruginosa, PA01, PA01.
[3] abbreviates: read-out: Control with no EPI MIC.
Where [4] appears, read: no EPI, read-out: Control with no EPI MIC.

SMILES strings stand for the structures. Values after ≈ are worked out from the molar mass of the structure shown. Read-outs that look alike come from different tables or passages of the source. Bounds are passed on as bounds.

The MIC is the lowest concentration found to suppress growth.

For `O=C(O)c1cn(C2CC2)c2cc(N3CCNCC3)c(F)cc2c1=O` [CIP, ciprofloxacin, reference compound], the Average (CFU/ml) in assay [1] (time-point 1 hours) worked out at 7000 CFU/ml; in assay [1] (time-point 2 hours), 584 CFU/ml; in assay [1] (time-point 4 hours), 10.7 CFU/ml; in assay [1] (time-point 6 hours) it was 0 CFU/ml; in assay [1] (time-point 24 hours), 4 CFU/ml. The “n = 1 (Log CFU/ml)” value in assay [1] (time-point 1 hours) came out at 19000 Log CFU/ml; in assay [1] (time-point 2 hours) it was 1500 Log CFU/ml; in assay [1] (time-point 4 hours) it was 0 Log CFU/ml; in assay [1] (time-point 6 hours) it was 0 Log CFU/ml; in assay [1] (time-point 24 hours) it was 10 Log CFU/ml. Besides, the “n = 2 (Log CFU/ml)” value in assay [1] (time-point 1 hours) is 0 Log CFU/ml; in assay [1] (time-point 2 hours), 0 Log CFU/ml; in assay [1] (time-point 4 hours), 30 Log CFU/ml; in assay [1] (time-point 6 hours), 0 Log CFU/ml; in assay [1] (time-point 24 hours) it was 0 Log CFU/ml. Also, the minimal inhibitory concentration (MIC) is 1 µg/mL (≈ 3.02 µM) in the assay on K. pneumonia MGH 78578 (K. pneumonia MGH 78578, read-out: MIC); 1 µg/mL (≈ 3.02 µM) in the assay with P. aeruginosa PA01 (Pseudomonas aeruginosa, PA01, read-out: MIC); 8 to 16 µg/mL (≈ 24.1 to 48.3 µM) in the assay on K. pneumonia NCTC 13439 (K. pneumonia NCTC 13439, read-out: MIC); 16 µg/mL (≈ 48.3 µM) in the assay on Psueudomonas GH12.

For `COc1cc2c(cc1OCCCC(=O)Nc1cc(C(=O)Nc3ccc4sc(C(=O)N(C)C)cc4c3)n(C)c1)N=C[C@@H]1CCCN1C2=O` [KMR-14-33, (S)—N-(2-(dimethylcarbamoyl)benzo[b]thiophen-5-yl)-4-(4-((7-methoxy-5-oxo-2,3,5,11a-tetrahydro-1H-benzo[e]pyrrolo[1,2-a][1,4]-diazepin-8-yl)oxy)butanamido)-1-methyl-1H-pyrrole-2-carboxamide], the Average (CFU/ml) in assay [1] (time-point 1 hours), in assay [1] (time-point 2 hours), in assay [1] (time-point 4 hours), in assay [1] (time-point 6 hours) and in assay [1] (time-point 24 hours) was 0 CFU/ml each time. The “n = 1 (Log CFU/ml)” value in assay [1] (time-point 1 hours), in assay [1] (time-point 2 hours), in assay [1] (time-point 4 hours), in assay [1] (time-point 6 hours) and in assay [1] (time-point 24 hours) was 0 Log CFU/ml each time. Besides, the “n = 2 (Log CFU/ml)” value in assay [1] (time-point 1 hours), in assay [1] (time-point 2 hours), in assay [1] (time-point 4 hours), in assay [1] (time-point 6 hours) and in assay [1] (time-point 24 hours) was 0 Log CFU/ml throughout. Also, the “n = 3 (Log CFU/ml)” value in assay [1] (time-point 1 hours), in assay [1] (time-point 2 hours), in assay [1] (time-point 4 hours), in assay [1] (time-point 6 hours) and in assay [1] (time-point 24 hours) was 0 Log CFU/ml each time. Besides, the minimal inhibitory concentration (MIC) in the assay on K. pneumonia MGH 78578 was 1 µg/mL (≈ 1.52 µM); in the assay with P. aeruginosa PA01 (PA01, KMR-14-33 alone), over 32 µg/mL; in the assay on P. aeruginosa PA01 (setting [2]), over 32 µg/mL; in the assay on K. pneumonia NCTC 13439 it was 2 µg/mL (≈ 3.05 µM); with AYE (read-out: +CCCP MIC) it was 0.125 µg/mL (≈ 0.19 µM); in the assay with AYE (setting [3]), 1 µg/mL (≈ 1.52 µM). Also, the MIC was 0.25 µg/mL (≈ 0.381 µM) in the assay with NCTC 17978 (CCCP at 10 μg/ml, read-out: +CCCP MIC) and 0.5 µg/mL (≈ 0.761 µM) in the assay with NCTC 17978 (setting [4]). The “+PABN MIC” value in the assay on AYE (AYE) was found to be 0.125 µg/mL; in the assay on NCTC 17978, 0.06 µg/mL. Further, the “+PABN + Mg MIC” value in the assay with AYE (AYE, PABN at 25 μg/ml with 1 mM MgSO4) stood at 0.25 µg/mL; in the assay on NCTC 17978 (PABN at 25 μg/ml with 1 mM MgSO4), 0.25 µg/mL.

In the case of `COc1cc2c(cc1OCCCC(=O)Nc1cc(C(=O)Nc3ccc4oc(C(=O)N5CCSCC5)cc4c3)n(C)c1)N=C[C@@H]1CCCN1C2=O` [PP-A148, (S)-4-(4-((7-methoxy-5-oxo-2,3,5,11a-tetrahydro-1H-benzo-[e]pyrrolo[1,2-a][1,4]diazepin-8-yl)oxy)butanamido)-1-methyl-N-(2-(thiomorpholine-4-carbonyl)benzofuran-5-yl)-1H-pyrrole-2-carboxamide], the MIC against K. pneumonia MGH 78578 was 4 to 8 µg/mL (≈ 5.72 to 11.4 µM); against P. aeruginosa PA01 (PA01), over 128 µg/mL; against P. aeruginosa PA01 (setting [2]), 128 µg/mL (≈ 183 µM); with K. pneumonia NCTC 13439, 4 to 8 µg/mL (≈ 5.72 to 11.4 µM); with Psueudomonas GH12, over 128 µg/mL; in the assay on AYE (setting [3]), 2 µg/mL (≈ 2.86 µM). The minimum inhibitory concentration (MIC) with NCTC 17978 (setting [4]) stood at 2 µg/mL (≈ 2.86 µM). Moreover, the “+PABN MIC” value in the assay on AYE (AYE) and in the assay on NCTC 17978 was 0.125 to 0.5 µg/mL throughout.

The record behind these values is US10640507B2, “PBD antibacterial agents” (KING'S COLLEGE LONDON, priority 2015, dated 2020).
